Consider one compound from patent US20210116454A1, “METHODS FOR TREATING A HEMATOLOGICAL CANCER AND THE USE OF COMPANION BIOMARKERS FOR 2-(2,6-DIOXOPIPERIDIN-3-YL)-4-((2-FLUORO-4-((3-MORPHOLINOAZETIDIN-1-YL)METHYL)BENZYL)AMINO)ISOINDOLINE-1,3-DIONE” (CELGENE CORPORATION, priority 2019, published 2021).

In one test the target is Ikaros (Homo sapiens, UniProt Q13422+Q96SW2). Put plainly: Ikaros degradation in anti-CD3 stimulated PBMCs by flow cytometry. The class given is cell-based. Here is the method:
Purified PBMCs from four healthy donors were plated on anti-CD3-coated plates to stimulate T cells and subsequently treated with either DMSO (control) or Compound 1 at various concentrations. The ability of Compound 1 to promote the degradation of Ikaros was assessed over time by flow cytometry (FIG. 12).

In a further test the target is T1, Aiolos (Homo sapiens, UniProt Q96SW2+Q9UKT9).
T1 construct: expressed in transfected cells; host or cells: DF15 cells
T1 sequence (Q9UKT9 whole entry): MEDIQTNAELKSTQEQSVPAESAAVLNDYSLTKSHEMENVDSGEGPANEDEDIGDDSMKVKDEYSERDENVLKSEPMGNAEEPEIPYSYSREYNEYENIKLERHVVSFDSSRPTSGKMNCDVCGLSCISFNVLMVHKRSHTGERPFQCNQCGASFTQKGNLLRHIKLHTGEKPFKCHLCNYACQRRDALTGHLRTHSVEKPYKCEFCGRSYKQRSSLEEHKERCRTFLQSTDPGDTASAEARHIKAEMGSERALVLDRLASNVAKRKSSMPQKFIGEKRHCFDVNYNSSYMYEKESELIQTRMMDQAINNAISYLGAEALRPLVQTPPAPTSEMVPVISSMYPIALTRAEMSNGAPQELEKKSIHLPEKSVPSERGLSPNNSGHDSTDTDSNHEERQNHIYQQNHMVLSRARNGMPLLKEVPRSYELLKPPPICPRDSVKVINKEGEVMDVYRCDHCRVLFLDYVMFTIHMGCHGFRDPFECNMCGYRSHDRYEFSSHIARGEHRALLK
T1 sequence (Q96SW2 whole entry): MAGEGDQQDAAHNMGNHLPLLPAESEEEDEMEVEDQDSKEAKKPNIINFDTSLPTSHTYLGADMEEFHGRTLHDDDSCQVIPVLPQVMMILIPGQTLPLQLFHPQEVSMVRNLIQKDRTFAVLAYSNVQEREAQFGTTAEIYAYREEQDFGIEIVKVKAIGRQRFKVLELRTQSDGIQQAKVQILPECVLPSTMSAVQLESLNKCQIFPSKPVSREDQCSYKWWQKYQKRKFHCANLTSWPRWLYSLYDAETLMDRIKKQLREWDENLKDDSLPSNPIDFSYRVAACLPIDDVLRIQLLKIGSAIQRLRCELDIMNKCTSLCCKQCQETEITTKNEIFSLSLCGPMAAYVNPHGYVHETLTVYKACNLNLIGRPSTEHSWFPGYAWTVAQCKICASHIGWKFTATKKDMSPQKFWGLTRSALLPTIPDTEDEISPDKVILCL
T1 sequence (Q16531 whole entry partner): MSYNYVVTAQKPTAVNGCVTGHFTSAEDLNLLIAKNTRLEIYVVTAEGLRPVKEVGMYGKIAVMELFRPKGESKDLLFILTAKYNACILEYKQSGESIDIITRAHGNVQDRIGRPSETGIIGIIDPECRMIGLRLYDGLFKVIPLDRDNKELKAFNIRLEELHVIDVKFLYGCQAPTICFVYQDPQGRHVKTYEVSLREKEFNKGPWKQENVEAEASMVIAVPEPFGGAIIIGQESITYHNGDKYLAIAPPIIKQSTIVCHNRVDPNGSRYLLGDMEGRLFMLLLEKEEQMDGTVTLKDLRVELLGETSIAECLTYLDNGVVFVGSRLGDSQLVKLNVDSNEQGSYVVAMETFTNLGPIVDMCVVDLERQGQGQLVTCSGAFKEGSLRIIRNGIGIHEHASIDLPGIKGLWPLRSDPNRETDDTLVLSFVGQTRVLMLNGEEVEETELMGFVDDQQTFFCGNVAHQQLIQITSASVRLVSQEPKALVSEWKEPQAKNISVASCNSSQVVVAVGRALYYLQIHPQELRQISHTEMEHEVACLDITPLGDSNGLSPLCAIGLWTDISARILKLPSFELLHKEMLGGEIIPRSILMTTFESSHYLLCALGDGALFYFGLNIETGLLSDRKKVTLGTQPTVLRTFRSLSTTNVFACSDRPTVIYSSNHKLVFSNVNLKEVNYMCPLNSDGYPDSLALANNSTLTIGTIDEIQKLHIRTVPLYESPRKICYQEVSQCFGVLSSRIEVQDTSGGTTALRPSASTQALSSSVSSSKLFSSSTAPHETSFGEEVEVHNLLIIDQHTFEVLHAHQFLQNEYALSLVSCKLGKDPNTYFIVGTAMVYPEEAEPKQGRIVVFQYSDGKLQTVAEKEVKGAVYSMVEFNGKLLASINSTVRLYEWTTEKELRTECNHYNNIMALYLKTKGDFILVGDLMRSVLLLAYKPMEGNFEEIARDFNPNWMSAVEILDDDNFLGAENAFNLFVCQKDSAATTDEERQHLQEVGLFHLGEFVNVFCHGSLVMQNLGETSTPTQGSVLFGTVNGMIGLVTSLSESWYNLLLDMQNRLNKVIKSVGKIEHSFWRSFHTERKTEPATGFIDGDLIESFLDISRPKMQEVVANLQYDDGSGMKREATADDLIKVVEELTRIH
The experiment in a line: ePL-tagged substrate degradation kinetics in DF15 cells (enantiomer comparison). The class given is cell-based. Also on record: Aiolos Y-constant: scale not given here. The conditions noted are these: for DC50: read-out: Aiolos EC50. Here is the method:
In a second assay, DF15 cell lines expressing ePL-tagged target protein substrates were used as a model system to monitor protein degradation at 0.75, 1, 1.5, 3, 4, and 24 hours over a concentration range from 1 pM to 10 μM. The proteins evaluated were Ikaros (FIG. 17), Aiolos, and ZFP91. Compound 1 and Compound 2 were both able to degrade the substrate proteins at all time points (Table 9). In a further assay, additional time points were included to monitor the effect of treatment with Compound 1 and Compound 2.
The depth of substrate protein degradation described by the Y-constant was also measured in this assay against a negative control luciferase inhibitor (CC1071297, Y-constant=0).

The subject of test [1] is endothelial cells, T- and B-lymphocytes, coronary smooth muscle cells, and fibroblasts. Put plainly: BioMAP Diversity PLUS Panel, antiproliferative effects. In kind it is cell-based, human. Here is the method:
The BioMAP Diversity PLUS Panel was assessed after treatment with Compound 1. The X-axis lists the quantitative protein-based biomarker readouts measured in each system. The Y-axis represents a log-transformed ratio of the biomarker readouts for the drug-treated sample (n=1) over vehicle controls (n≥6). The grey region around the Y-axis represents the 95% significance envelope generated from historical vehicle controls. Biomarker activities were annotated when 2 or more consecutive concentrations change in the same direction relative to vehicle controls, are outside of the significance envelope, and have at least one concentration with an effect size >20% (log 10 ratio >0.1). Antiproliferative effects are indicated by a thick grey arrow.
The activity of Compound 1 was profiled in a panel of human primary cell-based assays, modeling complex tissue and disease biology of organs (vasculature, immune system, skin, lung) and general tissue biology using the BioMAP System (DiscoveRx, Fremont, Calif.).
The BioMAP System consists of twelve primary human monoculture or co-culture systems in stimulated and non-stimulated control conditions (FIG. 4, panel A). When tested at 0.01, 0.1, 1, and 10 μM, Compound 1 mediated changes in key biomarker activities. […]

Another test deals with exhausted T cells. The experiment in a line: SEB-induced T-cell exhaustion restimulation assay, effector cytokine release (MSD). In kind it is cell-based. The note with it: for EC50: T cell restimulation assay.
Another test deals with 11 DLBCL cell lines. The experiment in a line: Integrated proteomics (TMT-MS) and RNA-Seq profiling. The class given is cell-based. The conditions noted are these: 0.04 μM; 12, 24 and 48 hours. As for the experimental part:
Biomarkers associated with the cytotoxic effects of Compound 1 treatment in DLBCL, such as signaling and regulatory pathways, were determined by integrative network analysis using transcriptomic and proteomic profiling. The approach consisted of a network flow optimization using a knowledge driven backbone network with protein interactions and regulatory associations similar to what was described previously (Basha, Mauer, Simonovsky, Shpringer, & Yeger-Lotem, 2019; Gosline, Spencer, Ursu, & Fraenkel, 2012).
Briefly, differential expression analysis and differential protein abundance analysis at different timepoints were integrated using a model framework. […]
To begin, cell line sensitivity to Compound 1 was determined by flow cytometry for 40 cell line models using DRAQ7 and Annexin V staining to quantify the reduction in proliferation and induction of apoptosis after five days of compound treatment. […] Sensitivity was calculated by calculating the ratio of (AUCapoptosis/AUClive cells), where smaller ratios indicated resistance, and larger ratios indicated sensitivity. […]

SMILES strings stand for the structures. Read-outs that look alike come from different tables or passages of the source.

Ikaros, sequence (Q13422 whole entry): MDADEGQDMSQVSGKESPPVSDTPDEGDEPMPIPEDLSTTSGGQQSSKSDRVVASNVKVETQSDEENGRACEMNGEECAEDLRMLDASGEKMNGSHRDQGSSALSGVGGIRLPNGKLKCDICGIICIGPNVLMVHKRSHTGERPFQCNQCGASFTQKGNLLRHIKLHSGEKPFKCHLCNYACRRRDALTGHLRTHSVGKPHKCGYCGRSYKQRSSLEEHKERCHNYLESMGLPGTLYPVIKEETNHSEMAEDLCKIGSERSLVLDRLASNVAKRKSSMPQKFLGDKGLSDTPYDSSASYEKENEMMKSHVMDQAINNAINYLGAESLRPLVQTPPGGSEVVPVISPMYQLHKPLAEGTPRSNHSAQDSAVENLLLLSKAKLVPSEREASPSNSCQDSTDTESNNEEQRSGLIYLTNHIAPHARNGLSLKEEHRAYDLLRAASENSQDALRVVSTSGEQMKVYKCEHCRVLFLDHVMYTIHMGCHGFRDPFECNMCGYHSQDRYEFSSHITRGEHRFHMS
Ikaros, sequence (Q96SW2 whole entry): as the sequence (Q96SW2 whole entry) above
Ikaros, sequence (Q16531 whole entry partner): as the sequence (Q16531 whole entry partner) above

One may read the EC50 as the midpoint of the concentration-response curve. Regarding `O=C1CC[C@H](N2C(=O)c3cccc(NCc4ccc(CN5CC(N6CCOCC6)C5)cc4F)c3C2=O)C(=O)N1` [Compound 1, (S)-2-(2,6-dioxopiperidin-3-yl)-4-((2-fluoro-4-((3-morpholinoazetidin-1-yl)methyl)benzyl)amino)isoindoline-1,3-dione], the “duration of Ikaros degradation after a single treatment” value at Ikaros was “maintained up to 7 days”. In addition, the “Ikaros in PBMCs (percentage of Ikaros positive cells)” value at Ikaros (four healthy donors) is “concentration-dependent degradation”. In addition, the “Aiolos Y-constant” value on Aiolos (0.75 hours) was determined as 46; at Aiolos (1 hour), 29; on Aiolos (1.5 hours), 11; at Aiolos (3 hours) it was 4.8; at Aiolos (4 hours), 3.9; on Aiolos (24 hours), 4.0. Also, the DC50 at Aiolos (0.75 hours) came out at 0.73 nM; on Aiolos (1 hour), 0.94 nM; on Aiolos (1.5 hours), 0.72 nM; on Aiolos (3 hours), 0.6 nM; at Aiolos (4 hours) it was 0.56 nM; at Aiolos (24 hours) it was 0.52 nM. In test [1], the “antiproliferative effects in BioMAP systems” value was “selectively antiproliferative”. Further, the EC50 with exhausted T cells (read-out: EC50 for secreted GM-CSF levels) stood at 6 nM; in the test on exhausted T cells (read-out: EC50 for secreted IFNγ), 10 nM; with exhausted T cells (read-out: EC50 for secreted TNFα), 10 nM. For the same compound, the GM-CSF secretion with exhausted T cells (approximately 0.001 μM for 96 hours) is 3000 pg/mL; in the test on exhausted T cells (approximately 0.01 μM for 96 hours), 10,000 pg/mL. Besides, the GM-CSF secretion plateau entry in the test with exhausted T cells (concentrations greater than 0.1 μM, 96 hours) is “under 15,000 pg/mL”. For the same compound, the “genes associated with cell cycle and transcription” value in the test on 11 DLBCL cell lines is “global down-regulation”. In addition, the “genes associated with interferon signaling, cytokine/chemokine signaling, apoptosis, cell adhesion, cell-cell junction, GPCRs, extracellular matrix” value in the test with 11 DLBCL cell lines was “up-regulation”.
